Results from article PMC6401476, “The Evolution of SlyA/RovA Transcription Factors from Repressors to Countersilencers in Enterobacteriaceae” (mBio, 2019).

Legend:
[1] = molecular target: T1, SlyA (Salmonella enterica, UniProt P40676); assay: intrinsic tryptophan fluorescence quenching; 1H, […]-TROSY NMR; type: binding
T1 construct: His-SlyA (N-terminal 6×His-tagged)

[2] = molecular target: T1, SlyA; assay: crystal structure at […] Å; 1H, […]-TROSY NMR; supported by in vitro transcription; type: binding
[3] = molecular target: the molecule itself; assay: crystal structure; His-SlyA co-crystallised with 75 mM sodium salicylate; sitting-drop vapor diffusion, room temperature; 20% PEG 400, 10% glycerol, 0.1 M phosphate-citrate buffer pH 4.2, 0.2 M ammonium sulfate; space group P21212, two SlyA molecules in the asymmetric unit, each dimer completed by space group symmetry

T1 sequence (P40676 whole entry): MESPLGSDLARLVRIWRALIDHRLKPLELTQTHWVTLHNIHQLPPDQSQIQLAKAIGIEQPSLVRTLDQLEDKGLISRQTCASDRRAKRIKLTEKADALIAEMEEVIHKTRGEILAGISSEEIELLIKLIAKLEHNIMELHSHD

Work on `O=C(O)c1ccccc1` [benzoate] yielded a Kd [1] of ~40 µM.

With `O=C(O)c1ccccc1O` [salicylate] the “crystal structure at 2.3 Å; 1H,15N-TROSY NMR; supported by in vitro transcriptio” value [2] was “The crystal structure of the SlyA dimer with salicylate bound at sites I and II was determined”.

B1: SlyA of Salmonella enterica serovar Typhimurium (His-SlyA) (natural protein)
chain: ESPLGSDLARLVRIWRALIDHRLKPLELTQTHWVTLHNIHQLPPDQSQIQLAKAIGIEQPSLVRTLDQLEDKGLISRQTCASDRRAKRIKLTEKADALIAEMEEVIHKTRGEILAGISSEEIELLIKLIAKLEHNIMELHSHD
notes: SlyA, MarR family transcription factor, Salmonella enterica serovar Typhimurium; the tips of the wings are not seen in the model; Residue numbers in the text are based on an alignment of SlyA orthologs and are not in register with the numbers of the deposited PDB file 3DEU; Strains were built in the ATCC 14028s background; also called SlyASTM; SlyASTm; not shown: 6xHis, N-terminal, kept
For B1, the “stoichiometry N” value [3] was 2.
